# Columns and labels:
# Type in all cases: cell-based, human
# MDA-MB-435 cells = assay: Immunofluorescent staining for actin localisation (confocal microscopy); details: 5 µM, 20 h
# Method: To evaluate the effect of compound treatment on cell morphology and stress actin fibres, an immunofluorescence imaging of cells was performed as previously described. MDA-MB-435 cells were seeded on cover slips in petri dishes and allowed to grow for 24 h. After cell growth, cells were treated with the vehicule (control cells) or with JMV5038, compound 5 or 8 at 5 µM for 20 h. Then cells were fixed using Antigenfix for 20 min and permeabilized using 0.2% Triton X-100 for 4 min at room temperature. Actin was stained using a primary human anti-actin antibody (made from mouse) and a secondary Alexa Fluor 568-conjugated goat anti-mouse antibody. Both of them were incubated 1 h at room temperature. Nuclei were counter-stained using Hoechst 33342. Representative images were obtained using a Zeiss LSM 780 inverted confocal microscopy. Confocal fluorescence microscopy was performed on fixed cells under a 543 nm wavelength excitation for AlexaFluor568, and 405 nm for nuclei, and visualised at 620 nm (red) and 450 nm (blue) respectively.
# In our previous study, we reported that JMV5038 led to changes in the cell morphology, concomitant with a disruption of the actin network. Morphological changes in MDA-MB-435 cells induced by compounds 5 or 8 were investigated and compared to those induced by JMV5038. For this purpose, fixed and actin immunostained MDA-MB-435 cells were imaged by confocal microscopy (Figure 6). Control cells treated with DMSO (20 h, 5 µM concentration) were spread and the tensile forces of actin stress fibres stretched the cell-adhesive phenotype.
# A549/ATCC = assay: NCI-60 SRB assay, A549/ATCC (NSCLC); details: 10 µM, 48 h
# Method: (§1) Primary anticancer assay was performed on a panel of 60 human cancer cell lines derived from nine neoplastic diseases, in accordance with the protocol of the Drug Evaluation Branch, National Cancer Institute, Bethesda, Maryland, USA[22]. Cells were incubated with tested compounds at 10 µM for 48 h. The growth percentage was evaluated spectrophotometrically using a protein binding dye, SRB. Results for each tested compound were reported as the percent of growth of treated cells when compared to untreated control cells.
# (§2) To better compare the activity profile of these two series of compounds, compounds 5 and 8 were selected and then evaluated towards a panel of sixty cancer cell lines corresponding to nine different cancer types, i.e. leukaemia, melanoma, as well as lung, colon, central nervous system, ovarian, renal, prostate and breast cancers (NCI evaluation). Indeed, it is now well established that the growth inhibitory patterns of anticancer drugs against the NCI-60 cell line panel correlated well with their modes of action. For example, compounds that bind to tubulin have similar growth inhibition patterns regardless of which site on tubulin they bind[30]. […] Compounds were tested using the sulforhodamine B (SRB) assay that provides a direct cell density index. The amount of dye incorporated by the cells increases with the increase of the total protein biomass. Cells were incubated for 48 h with compounds at 10 µM concentration, then cell growth was evaluated spectrophotometrically and presented as the percent of untreated control cells. Values of the most sensitive cell lines were compared to those obtained with JMV5038 (Figure 4, for all data see SI).
# EKVX = assay: NCI-60 SRB assay, EKVX (NSCLC); details: 10 µM, 48 h
# Method: as §1, §2
# HOP-92 = assay: NCI-60 SRB assay, HOP-92 (NSCLC); details: 10 µM, 48 h;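 as to Mean G% - G%: mean growth across the NCI-60 panel minus this line's growth with positive meaning more sensitive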
# Method: as §1, §2
# NCI-H23 = assay: NCI-60 SRB assay, NCI-H23 (NSCLC); details: 10 µM, 48 h
# Method: as §1, §2
# NCI-H460 = assay: NCI-60 SRB assay, NCI-H460 (NSCLC); details: 10 µM, 48 h
# Method: as §1, §2
# NCI-H522 = assay: NCI-60 SRB assay, NCI-H522 (NSCLC); details: 10 µM, 48 h
# Method: as §1, §2
# HCC-2998 = assay: NCI-60 SRB assay, HCC-2998 (Colon Cancer); details: 10 µM, 48 h;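 as to Mean G% - G%: mean growth across the NCI-60 panel minus this line's growth with positive meaning more sensitive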
# Method: as §1, §2
# HT29 = assay: NCI-60 SRB assay, HT29 (Colon Cancer); details: 10 µM, 48 h;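 as to Mean G% - G%: mean growth across the NCI-60 panel minus this line's growth with positive meaning more sensitive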
# Method: as §1, §2
# SW-620 = assay: NCI-60 SRB assay, SW-620 (Colon Cancer); details: 10 µM, 48 h
# Method: as §1, §2
# SF-268 = assay: NCI-60 SRB assay, SF-268 (CNS Cancer); details: 10 µM, 48 h
# Method: as §1, §2
# SF-539 = assay: NCI-60 SRB assay, SF-539 (CNS Cancer); details: 10 µM, 48 h
# Method: as §1, §2
# SNB-75 = assay: NCI-60 SRB assay, SNB-75 (CNS Cancer); details: 10 µM, 48 h
# Method: as §1, §2
# LOX IMVI = assay: NCI-60 SRB assay, LOX IMVI (Melanoma); details: 10 µM, 48 h
# Method: as §1, §2
# MALME-3M = assay: NCI-60 SRB assay, MALME-3M (Melanoma); details: 10 µM, 48 h
# Method: as §1, §2
# MDA-MB-435 = assay: NCI-60 SRB assay, MDA-MB-435 (Melanoma); details: 48 h;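 as to Mean G% - G%: mean growth across the NCI-60 panel minus this line's growth with positive meaning more sensitive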
# Method: as §1, §2
# SK-MEL-2 = assay: NCI-60 SRB assay, SK-MEL-2 (Melanoma); details: 10 µM, 48 h
# Method: as §1, §2
# SK-MEL-5 = assay: NCI-60 SRB assay, SK-MEL-5 (Melanoma); details: 10 µM, 48 h
# Method: as §1, §2
# IGROV1 = assay: NCI-60 SRB assay, IGROV1 (Ovarian Cancer); details: 10 µM, 48 h
# Method: as §1, §2
# OVCAR-3 = assay: NCI-60 SRB assay, OVCAR-3 (Ovarian Cancer); details: 10 µM, 48 h
# Method: as §1, §2
# OVCAR-4 = assay: NCI-60 SRB assay, OVCAR-4 (Ovarian Cancer); details: 10 µM, 48 h
# Method: as §1, §2
# NCI/ADR-RES = assay: NCI-60 SRB assay, NCI/ADR-RES (Ovarian Cancer); details: 10 µM, 48 h
# Method: as §1, §2
# TK-10 = assay: NCI-60 SRB assay, TK-10 (Renal Cancer); details: 10 µM, 48 h
# Method: as §1, §2
# UO-31 = assay: NCI-60 SRB assay, UO-31 (Renal Cancer); details: 10 µM, 48 h
# Method: as §1, §2
# DU-145 = assay: NCI-60 SRB assay, DU-145 (Prostate Cancer); details: 10 µM, 48 h
# Method: as §1, §2
# MCF7 = assay: NCI-60 SRB assay, MCF7 (Breast Cancer); details: 10 µM, 48 h
# Method: as §1, §2
# MDA-MB-468 = assay: NCI-60 SRB assay, MDA-MB-468 (Breast Cancer); details: 10 µM, 48 h
# Method: as §1, §2
compound,measurement,setting,value
"C[C@@H]1NC(c2ccc(N=[N+]=[N-])cc2)=Nc2nc3ccccn3c2C1=O [Compound 5, (4S)-4-methyl-2-(4-azidophenyl)-3,4-dihydro-5H-pyrido[1’,2’:1,2]imidazo[4,5-d][1,3]diazepin-5-one]",morphological changes / actin network,MDA-MB-435 cells,disorganisation of the actin cytoskeleton
same,Mean G% - G%,A549/ATCC,"-3,81%"
same,G%,A549/ATCC; growth vs untreated control,"89,07%"
same,Mean G% - G%,EKVX,"3,45%"
same,G%,EKVX; growth vs untreated control,"81,81%"
same,Mean G% - G%,HOP-92,"-17,00%"
same,G%,HOP-92; growth vs untreated control,"102,26%"
same,Mean G% - G%,NCI-H23,"-1,81%"
same,G%,NCI-H23; growth vs untreated control,"87,07%"
same,Mean G% - G%,NCI-H460,"-8,41%"
same,G%,NCI-H460; growth vs untreated control,"93,67%"
same,Mean G% - G%,NCI-H522,"13,32%"
same,G%,NCI-H522; growth vs untreated control,"71,94%"
same,Mean G% - G%,HCC-2998,"3,82%"
same,G%,HCC-2998; growth vs untreated control,"81,44%"
same,Mean G% - G%,HT29,"10,46%"
same,G%,HT29; growth vs untreated control,"74,80%"
same,Mean G% - G%,SW-620,"13,36%"
same,G%,SW-620; growth vs untreated control,"71,90%"
same,Mean G% - G%,SF-268,"-12,35%"
same,G%,SF-268; growth vs untreated control,"97,61%"
same,Mean G% - G%,SF-539,"-2,57%"
same,G%,SF-539; growth vs untreated control,"87,83%"
same,Mean G% - G%,SNB-75,"14,91%"
same,G%,SNB-75; growth vs untreated control,"70,35%"
same,Mean G% - G%,LOX IMVI,"4,81%"
same,G%,LOX IMVI; growth vs untreated control,"80,45%"
same,Mean G% - G%,MALME-3M,"3,28%"
same,G%,MALME-3M; growth vs untreated control,"81,98%"
same,inhibition at 10 µM,"MDA-MB-435; Homo sapiens, MDA-MB-435, NCI-60 SRB, read-out: growth inhibition percentage",87%
same,Mean G% - G%,"MDA-MB-435; MDA-MB-435, 10 µM, SRB","72,64%"
same,G%,"MDA-MB-435; MDA-MB-435, 10 µM, SRB, growth vs untreated control","12,62%"
same,Mean G% - G%,SK-MEL-2,"-9,12%"
same,G%,SK-MEL-2; growth vs untreated control,"94,38%"
same,Mean G% - G%,SK-MEL-5,"14,40%"
same,G%,SK-MEL-5; growth vs untreated control,"70,86%"
same,Mean G% - G%,IGROV1,"10,76%"
same,G%,IGROV1; growth vs untreated control,"74,50%"
same,Mean G% - G%,OVCAR-3,"-12,28%"
same,G%,OVCAR-3; growth vs untreated control,"97,54%"
same,Mean G% - G%,OVCAR-4,"-3,32%"
same,G%,OVCAR-4; growth vs untreated control,"88,58%"
same,Mean G% - G%,NCI/ADR-RES,"11,92%"
same,G%,NCI/ADR-RES; growth vs untreated control,"73,34%"
same,Mean G% - G%,TK-10,"-48,01%"
same,G%,TK-10; growth vs untreated control,"133,27%"
same,Mean G% - G%,UO-31,"15,67%"
same,G%,UO-31; growth vs untreated control,"69,59%"
same,Mean G% - G%,DU-145,"-18,38%"
same,G%,DU-145; growth vs untreated control,"103,64%"
same,Mean G% - G%,MCF7,"26,64%"
same,G%,MCF7; growth vs untreated control,"58,62%"
same,Mean G% - G%,MDA-MB-468,"11,88%"
same,G%,MDA-MB-468; growth vs untreated control,"73,38%"
